Experimental data reported in patent US20090269795A1, “Mutant alpha4betadelta GABAA receptor and methods of treating anxiety or irritability” (priority 2007, published 2009).

Tests used:
[1] = tested on: thalamic relay neurons; experiment: Tonic current in thalamic relay neurons, slice; type: cell-based, mouse; settings: pre-pubertal; n=6
Method: Hippocampal slice: Slice preparation^20: Animals were rapidly decapitated, and the brains removed and cooled using an ice cold solution of artificial cerebrospinal fluid (aCSF) containing (in mM): NaCl 124, KCl 5, CaCl2 2, KH2PO4 1.25, MgSO4 2, NaHCO3 26, and glucose 10, saturated with 95% O2, 5% CO2 and buffered to a pH of 7.4. Following sectioning at 400 μm on a Leica oscillating microtome, slices were incubated for one hour in oxygenated aCSF. Slice recording: Pyramidal cells in CA1 hippocampal slice^20 or thalamic relay neurons in the ventral tier were visualized using a Leica DIC-infrared upright microscope, and recorded at −50 or −60 mV using whole cell patch clamp procedures at room temperature (20-22° C., Axopatch 200B amplifier, Axon Instruments, 20 kHz sampling frequency, 2 kHz 4-pole Bessel filter) and pClamp 9.2 software. Patch pipets were fabricated to yield open tip resistances of 2-4 MΩ. Internal solution in mM for ECl=−70 (or ECl=−30): K-gluconate 141.5 (O), KCl 0 (52.3), CsCl 8.5 (145), HEPES 5, EGTA 5, CaCl2-H2O 0.5, QX-314 5 (Calbiochem), Mg-ATP 2, Li-GTP 0.5, pH 7.2, 290 mOsm. […] Electrode capacitance and series resistance were monitored and compensated; access resistance was monitored throughout the experiment, and cells discarded if the access resistance >10 MΩ. […]

[2] = tested on: α5β2/3γ2 receptors; experiment: Whole cell patch clamp of GABA-gated current, recombinant receptors in HEK-293 cells; type: cell-based, rat; settings: 30 nM THP
From the text: Recombinant receptors: Transfection—Plasmids obtained from S. Vicini (rat α1, α5, β2, β3 and γ2), P. Whiting (human α4 and δ) and N. L. Harrison (mouse α4) were propagated in E coli DH5α and prepared using Qiagen Maxi- or Midi-prep kits. (Rat, mouse and human α1, β2, β3 and γ2 subunits are identical or nearly identical.) All receptors were transfected at a 1:1:1 ratio, except α1β2γ2 (1:1:5)^12, α4βδ (5:1:5)^13 and α4β2γ2 (5:1:1). HEK-293 cells were maintained in medium (DMEM:Ham's F-12 1:1) supplemented with 10% fetal calf serum at 37° C. in a humid 5% CO2 atmosphere.
The pipet solution contained (in mM): N-methyl-D-glucamine chloride 120, Cs4BAPTA 5 (Calbiochem), Mg-ATP 5, and an ATP regeneration system (20 mM Tris phosphocreatine and creatine kinase). Internal [Cl^−] or the holding potential were varied, using gluconate as the anion, to alter the direction of Cl^− flow, corrected for the junction potential.
HEK-293 cells were maintained in medium (DMEM:Ham's F-12 1:1) supplemented with 10% fetal calf serum at 37° C. in a humid 5% CO2 atmosphere.

[3] = tested on: α4 and δ GABAA receptor subunits; experiment: Western blot of hippocampal α4 and δ subunit expression; type: in vivo, mouse; settings: replacement THP 10 mg kg−1 day−1 for 3 days
From the text: Animal subjects. Prepubertal and pubertal female C57BL6 mice (3½-6 weeks old, +/+ and δ^−/−1) were housed in a reverse light:dark cycle (12:12). Both sets of mice were originally supplied by G. Homanics (Univ. of Pittsburgh), and were bred on site, with +/+ mice supplemented from Jackson Laboratories (Bar Harbor, Me.). Initially, age-matched+/+littermates of the δ^−/−were used as controls, but because they were indistinguishable from C57BL6, data from both groups were pooled. Genotyping of the tails verified that mice were homozygous δ^−/−. […] The onset of puberty was determined by vaginal opening, and pubertal mice tested on the day of first metestrus, identified by vaginal morphology and verification of first estrus the previous day. […] Individual stages of puberty were not distinguished, and pre-pubertal mice were used before any visible signs of pubertal development, assessed by development of the peri-vaginal area. […]
Western blot: Procedures were performed on hippocampal membranes at protein concentrations in the linear range (5-10 μg), as we have described^7. Following preparation of crude hippocampal membranes, individual protein concentrations were assessed using the Bradford assay. […] (The δ antibody was a generous gift from W. Sieghart.) Optical densities were quantified with One-Dscan software from a scanned image. […]

`CC(=O)[C@H]1CC[C@H]2[C@@H]3CC[C@H]4C[C@H](O)CC[C@]4(C)[C@H]3CC[C@]12C` [THP, 3α-OH-5α[β]-pregnan-20-one] was tested, and the “reduction of tonic current” value [1] was 57±12%, the “effect on outward current” value [2] was “either increased or had no effect” and the “effect on increased expression of α4 and δ subunits at onset of puberty” value [3] was “prevented”.
